Experimental data from patent publication US20160346249A1 (priority 2012, published 2016).
Read-outs that look alike come from different tables or passages of the source.

Key:
[1] = In vitro metabolism in human hepatocytes; details: male, human, 4 h, 87 μM
Method: Cryopreserved human hepatocytes (male) that are prepared by XenoTech, LLC (Lenexa, Kans.), are thawed on the day of use and resuspended in Waymouth's incubation media. The enzymatic activity of hepatocytes is monitored using 7-ethoxycoumarin and 7-hydroxycoumarin as substrates. […] The incubations are carried out for 4 hours with 1×10^6 viable cells/ml. […] At 0 and 4 hour, cell suspensions are extracted using two volumes of ice cold methanol. After centrifugation, the extracts are stored at −20° C. until further sample processing. The solvent in the samples are dried under a stream of nitrogen, and resuspended in methanol:water (1:1) before analysis.
The extracts of the 4 hour incubation mixture are analyzed by liquid chromatography/electrospray ionization-mass spectrometry (LC/ESI-MS) in the positive and negative ion modes to screen for possible metabolites. HPLC Methods 1 and 2 are used to find potential metabolites, and the HPLC and mass spectrometry systems are described in Table 56. The same instrumentation and methods in HPLC Method 1 are used in HPLC Method 2 with the exception that the mobile phases and gradient are changed to 0.4% HCOOH in H2O for mobile A and CH3OH for mobile phase B. The mass spectrometer is LCQ™ Ion Trap Mass Spectrometer and is in either the positive or negative electrospray mode with the ion spray set at 4.5 kV. The capillary temperature is 250° C., the nitrogen sheath gas flow rate is ˜80 unit, the auxiliary nitrogen gas flow rate is 20 unit, and the collision gas is helium.

[2] = 13-week mouse toxicity and toxicokinetic study; details: Crl:CD-1(ICR) BR, in vivo, 0 day
Method: For toxicology assessment ten mice of each gender were placed in each group.
Ophthalmic examinations were performed during Weeks −1 and 12.

[3] = 26-week rat toxicity and toxicokinetic study; type: in vivo; details: for AUC(0-t): Crl:CD(SD)IGS BR, rat, plasma, po, 8 mg/kg/day, EB-1010 8 mg/kg/day, read-out: AUC0-24 of metabolite
Method: A portion of the animals from each group was maintained for an additional 4-week post-treatment recovery period.
For toxicology assessment, groups comprised thirty animals of each gender. Assessments included clinical observations, body weight, and food consumption measures noted periodically during the study. […] Ophthalmic examinations were performed during Weeks 1 and 13. […] In addition, the liver, vagina, and ovaries were identified as potential target tissues and were examined microscopically for all animals from all groups at the primary and recovery necropsies. […] 10 animals of each gender from each group were held to week 30 for a 4-week post-treatment recovery period.
For the toxicokinetic studies, there were ten animals of each gender in each group.

[4] = Crl:CD-1(ICR) BR, mouse, in vivo
[5] = NADPH dependent metabolism, rat liver microsomes; type: in vitro ADME; details: RLM, from EB-1010 10 μM
Method: Bicifadine (10 μM) was used as the positive control and the formation of the lactam metabolites of bicifadine (M-12) was monitored.

SMILES: O=C1NCC2(c3ccc(Cl)c(Cl)c3)CC12 (stereo not drawn) [EB-10101, 5-(3,4-dichloro-phenyl)-3-aza-bicyclo[3.1.0]hexan-2-one]
- share of the metabolites formed [1]: about 63%
- exposure to metabolite relative to parent drug [2]: 2-5 fold
- AUC0-24 of metabolite relative to parent drug ([3]; Day 0): approximately 7 fold
- AUC0-24 of metabolite relative to parent drug ([3]; Day 177): ≤ 14 fold
- AUC(0-t) ([3]; female, females, Day 177): 88100 ng·h/mL
- AUC(0-t) ([3]; male, males, Day 177): 80400 ng·h/mL
- AUC0-24 of metabolite relative to parent drug [4]: 2-5 fold
- AUC0-24 of metabolite relative to parent drug ([4]; 150 mg/kg/day): ≤ 10 fold
- amount formed with NADPH vs without NADPH [5]: ~5 fold
